Ends that are not written are not given here.
Assays:
[1] = target: T1, human GIP receptor (Homo sapiens, UniProt P48546); assay: cAMP accumulation assay (HitHunter cAMP XS) in transiently transfected COS-7 cells expressing the human GIP receptor; assay type: cell-based; conditions: for Emax at 10 µM: COS-7, read-out: Emax (10 μM), GIP receptor; for EC50: cAMP, COS-7; for fold (fold change of native GIP), GIP receptor: EC50 relative to native GIP
T1 construct: host or cells: COS-7 (transient, calcium phosphate; pCMV-Script vector)
T1 sequence (P48546 22-466): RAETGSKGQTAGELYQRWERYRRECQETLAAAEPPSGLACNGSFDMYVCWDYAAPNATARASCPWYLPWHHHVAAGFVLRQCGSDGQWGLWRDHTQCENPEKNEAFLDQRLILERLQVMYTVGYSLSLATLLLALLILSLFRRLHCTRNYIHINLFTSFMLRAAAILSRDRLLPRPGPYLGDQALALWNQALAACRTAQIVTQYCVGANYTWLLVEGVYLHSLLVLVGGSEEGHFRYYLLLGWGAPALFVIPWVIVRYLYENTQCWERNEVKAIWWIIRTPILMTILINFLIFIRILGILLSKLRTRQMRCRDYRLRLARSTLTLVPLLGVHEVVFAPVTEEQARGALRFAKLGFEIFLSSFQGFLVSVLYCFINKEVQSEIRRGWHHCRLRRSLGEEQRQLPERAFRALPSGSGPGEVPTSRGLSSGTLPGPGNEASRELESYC
Protocol: (§1) The day after, the cells were washed twice with Hepes buffered saline (HBS) buffer and incubated with HBS and 1 mM 3-isobutyl-1-methylxanthine (IBMX) for 30 min at 37° C. Ligands were added and incubated for 30 min at 37° C. The HitHunter™ cAMP XS assay (DiscoveRx) was carried out according to the manufacturer's instructions.

[2] = test system: bone resorption (serum C-terminal cross-linking telopeptide of type I collagen, CTX); assay: Human study 1: bone resorption by serum CTX after subcutaneous injection of GIP or GLP-2; assay type: in vivo
Protocol: Method: Eight healthy young men were enrolled. […] Participants arrived in the morning (fasted overnight) and received the injection around 8.30 a.m. Blood samples were collected before (−25 and −10 min) and every 30 minutes after injection (30, 60, 90, 120, 180 and 240 min). After last participant's last visit, bone resorption was determined by measurements of serum C-terminal cross-linking telopeptide of type I collagen (CTX; IDS Immunodiagnostic Systems GmbH, Frankfurt am Main, Germany)

[3] = target: T2, human GLP-2 receptor (Homo sapiens, UniProt O95838); assay: cAMP accumulation assay (HitHunter cAMP XS) in transiently transfected COS-7 cells expressing the human GLP-2 receptor; assay type: cell-based; conditions: for Emax at 10 µM: COS-7, read-out: Emax (10 μM), GLP-2 receptor; for fold (fold change of native GLP-2), GLP-2 receptor: EC50 relative to native GLP-2; for EC50: logEC50, GLP-2 receptor, cAMP, COS-7
T2 construct: host or cells: COS-7 (transient, calcium phosphate; pCMV-Script vector)
T2 sequence (O95838 1-553): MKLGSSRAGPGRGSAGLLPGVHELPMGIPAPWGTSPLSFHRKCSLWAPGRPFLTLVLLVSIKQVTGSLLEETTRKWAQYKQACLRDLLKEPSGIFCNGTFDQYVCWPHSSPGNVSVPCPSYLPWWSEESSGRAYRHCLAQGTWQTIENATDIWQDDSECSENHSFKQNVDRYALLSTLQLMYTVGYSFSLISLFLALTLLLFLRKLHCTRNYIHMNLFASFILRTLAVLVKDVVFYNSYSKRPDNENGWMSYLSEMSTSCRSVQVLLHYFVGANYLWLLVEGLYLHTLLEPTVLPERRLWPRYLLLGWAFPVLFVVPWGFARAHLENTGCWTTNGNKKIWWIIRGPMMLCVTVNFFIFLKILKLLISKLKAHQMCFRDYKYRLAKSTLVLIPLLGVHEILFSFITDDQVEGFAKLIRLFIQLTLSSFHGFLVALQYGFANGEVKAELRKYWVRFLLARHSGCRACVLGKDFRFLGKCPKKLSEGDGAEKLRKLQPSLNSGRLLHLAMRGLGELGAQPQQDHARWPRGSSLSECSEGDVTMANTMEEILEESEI
Protocol: as §1

[4] = logEC50, GIP receptor, Table 2, log value
[5] = logEC50, GIP receptor, Table 1, log value

**Q.** `CC[C@H](C)[C@H](NC(=O)[C@H](Cc1ccccc1)NC(=O)[C@H](CC(=O)O)NC(=O)[C@H](CCCNC(=N)N)NC(=O)[C@H](C)NC(=O)[C@H](C)NC(=O)[C@H](CC(C)C)NC(=O)[C@H](CC(N)=O)NC(=O)[C@H](CC(=O)O)NC(=O)[C@H](CC(C)C)NC(=O)[C@@H](NC(=O)[C@@H](NC(=O)[C@H](CC(N)=O)NC(=O)[C@H](CCSC)NC(=O)[C@H](CCC(=O)O)NC(=O)[C@H](CC(=O)O)NC(=O)[C@H](CO)NC(=O)[C@H](Cc1ccccc1)NC(=O)[C@H](CO)NC(=O)CNC(=O)[C@H](CC(=O)O)NC(=O)[C@H](C)NC(=O)[C@@H](N)Cc1c[nH]cn1)[C@@H](C)O)[C@@H](C)CC)C(=O)N[C@@H](CC(N)=O)C(=O)N[C@@H](Cc1c[nH]c2ccccc12)C(=O)N[C@@H](CC(C)C)C(=O)N[C@H](C(=O)N[C@@H](CCC(N)=O)C(=O)N[C@H](C(=O)N[C@@H](CCCCN)C(=O)N[C@H](C(=O)N[C@H](C(=O)N[C@@H](CC(=O)O)C(=O)O)[C@@H](C)O)[C@@H](C)CC)[C@@H](C)O)[C@@H](C)CC` [GLP-2, reference compound] was tested. Which Emax at 10 µM [1] did it give?
**A.** The Emax at 10 µM was 22%.

**Q.** And the EC50 ([1]; EC50(nM), GIP receptor, Table 1)?
**A.** The EC50 was 56 nM.

**Q.** What about the “reduction in bone resorption (CTX)” value ([2]; 200 μg GIP and 800 μg GLP-2, each alone, s.c., restated in Example 4) of the same compound?
**A.** Its value is about 50%.

**Q.** And the “bone resorption (CTX), maximum effect, % of base line” value ([2]; human GLP-2 800 μg s.c., healthy young men, 180 min after administration)?
**A.** The value was 63.4±3.4 % of base line.

**Q.** “HADGTFISDYSKILDNLAARDFINWLIQTKITK [Co-agonist 24]” was tested. Which Emax at 10 µM [3] did it give?
**A.** The Emax at 10 µM was 96%.

**Q.** And the “fold (fold change of native GLP-2), GLP-2 receptor” value ([3]; Table 2)?
**A.** Its value is 0.62 fold.

**Q.** And the Emax at 10 µM [1]?
**A.** The Emax at 10 µM was 100%.

**Q.** And the “fold (fold change of native GIP), GIP receptor” value (from here on “fold (fold change of native GIP)”) ([1]; Table 2)?
**A.** Its value is 1.7 fold.

**Q.** And the EC50 [1, 4]?
**A.** The EC50 was 0.151 nM.

**Q.** “HADGTFISDYSTIKDNLAARDFINWLIQTKITK [Co-agonist 25]” was tested. Which Emax at 10 µM [3] did it give?
**A.** The Emax at 10 µM was 92%.

**Q.** What about the “fold (fold change of native GLP-2), GLP-2 receptor” value ([3]; Table 2) of the same compound?
**A.** Its value is 2.9 fold.

**Q.** What about the EC50 ([3]; Table 2) of the same compound?
**A.** Its EC50 is 3.47 nM.

**Q.** And the Emax at 10 µM [1]?
**A.** The Emax at 10 µM was 92%.

**Q.** What about the “fold (fold change of native GIP)” value ([1]; Table 2) of the same compound?
**A.** The value was 4.9 fold.

**Q.** Which results are given for “HADGTFISDYSTILDKLAARDFINWLIQTKITK [Co-agonist 26]”?
**A.** Emax at 10 µM [3]: 100%; fold (fold change of native GLP-2), GLP-2 receptor ([3]; Table 2): 0.26 fold; EC50 ([3]; Table 2): 0.309 nM; Emax at 10 µM [1]: 100%; fold (fold change of native GIP), GIP receptor ([1]; Table 2): 0.34 fold; EC50 [1, 4]: 0.0302 nM

**Q.** With “HADGTFISDYSTILDNLAARDFINWLIQTKGKKNDWKHNITQ [Co-agonist 34]” as the compound, how does the Emax at 10 µM [3] read?
**A.** Its Emax at 10 µM is 94%.

**Q.** What about the EC50 ([3]; Table 2) of the same compound?
**A.** The EC50 was 1.15 nM.

**Q.** What about the Emax at 10 µM [1] of the same compound?
**A.** Its Emax at 10 µM is 100%.

**Q.** For “HADGTFISDYSTILDNLAARDFINWLIQTKGTD [Co-agonist 16]”, which Emax at 10 µM [3] is on record?
**A.** Its Emax at 10 µM is 74%.

**Q.** What about the “fold (fold change of native GLP-2), GLP-2 receptor” value ([3]; Table 1) of the same compound?
**A.** Its value is 68 fold.

**Q.** And the EC50 ([3]; Table 1)?
**A.** Its EC50 is 87.1 nM.

**Q.** And the Emax at 10 µM [1]?
**A.** The Emax at 10 µM was 95%.

**Q.** What about the “fold (fold change of native GIP)” value ([1]; Table 1) of the same compound?
**A.** The value was 6.7 fold.

**Q.** “HADGTFISDYSTILDNLAARDFINWLIQTKIKD [Co-agonist 17]” was tested. Which Emax at 10 µM [3] did it give?
**A.** The Emax at 10 µM was 88%.

**Q.** What about the “fold (fold change of native GLP-2), GLP-2 receptor” value ([3]; Table 1) of the same compound?
**A.** The value was 21 fold.

**Q.** What about the EC50 ([3]; Table 1) of the same compound?
**A.** Its EC50 is 24.5 nM.

**Q.** What about the Emax at 10 µM [1] of the same compound?
**A.** Its Emax at 10 µM is 95%.

**Q.** And the “fold (fold change of native GIP)” value ([1]; Table 1)?
**A.** The value was 4.5 fold.

**Q.** How did the Emax at 10 µM [3] turn out when “HADGTFISDYSTILDNLKARDFINWLIQTKITK [Co-agonist 27]” was run?
**A.** The Emax at 10 µM was 100%.

**Q.** And the “fold (fold change of native GLP-2), GLP-2 receptor” value ([3]; Table 2)?
**A.** Its value is 0.47 fold.

**Q.** And the Emax at 10 µM [1]?
**A.** Its Emax at 10 µM is 100%.

**Q.** And the “fold (fold change of native GIP)” value ([1]; Table 2)?
**A.** The value was 6.2 fold.

**Q.** What does the source list for “HADGTFISEYSTILDNLAARDFINWLIQTKITD [Co-agonist 15]”?
**A.** Emax at 10 µM [3]: 104%; fold (fold change of native GLP-2), GLP-2 receptor ([3]; Table 1): 5.6 fold; Emax at 10 µM [1]: 92%; fold (fold change of native GIP), GIP receptor ([1]; Table 1): 36 fold; EC50 [1, 5]: 3.16 nM

**Q.** “HADGTFSSDYSTILDNLAAKDFINWLIQTKITD [Co-agonist 20]” was tested. Which Emax at 10 µM [3] did it give?
**A.** The Emax at 10 µM was 80%.

**Q.** And the Emax at 10 µM [1]?
**A.** The Emax at 10 µM was 98%.

**Q.** For “HADGTFSSDYSTILDNLAARDFINWLIQTKITD [Co-agonist 13]”, which Emax at 10 µM [3] is on record?
**A.** Its Emax at 10 µM is 99%.

**Q.** What about the “fold (fold change of native GLP-2), GLP-2 receptor” value ([3]; Table 1) of the same compound?
**A.** The value was 9.2 fold.

**Q.** What about the EC50 ([3]; Table 1) of the same compound?
**A.** Its EC50 is 11.2 nM.

**Q.** What about the Emax at 10 µM [1] of the same compound?
**A.** Its Emax at 10 µM is 91%.

**Q.** And the “fold (fold change of native GIP)” value ([1]; Table 1)?
**A.** Its value is 135 fold.

**Q.** What about the EC50 [1, 5] of the same compound?
**A.** The EC50 was 12 nM.

Source: patent publication US11725037B2, “Peptide dual agonists of GIPR and GLP2R” (University of Copenhagen, priority 2017, dated 2023)
